≈ marks a conversion by molar mass, not a printed value.
Assay: Inhibition of AChE assessed as minimum drug level causing white zone of enzyme inhibition by TLC bioautography

Row | Structure (SMILES) | MIC
1 | COC1=C(C)C(=O)O/C1=C1\O[C@@]23OC4CC(C2[C@H]1C)N1CCC3[C@]41/C=C/[C@@H](C)O (some centres not stated) | 1.25 nM (≈ 0.501 ng/mL)
2 | CCCCC12C3CC4C5[C@@H](C)[C@](O)([C@]6(O)OC(=O)C(C)=C6OC)O[C@]5(O3)C1CCN42 (some centres not stated) | 1.19 nM (≈ 0.501 ng/mL)

From ChEMBL document CHEMBL1155467, “Semisynthesis and acetylcholinesterase inhibitory activity of stemofoline alkaloids and analogues” (J Nat Prod, 2010)
